Values of other authors in patent US20200197416A1, “PHARMACEUTICAL COMPOSITION COMPRISING ABIRATERONE ACETATE AND DARULOTAMIDE” (NanGenex Nanotechnology Incorporated, priority 2017, published 2020).
Like-named read-outs stand apart in the source and are kept apart here. One block for each compound: values may come before it.

Columns and labels:
[1] = molecular target: P-glycoprotein (P-gp) (Homo sapiens, UniProt P08183)
[2] = for compound present in feces, % of the administered dose: oral 14C-abiraterone acetate
[3] = tested on: serum testosterone and other androgens; settings: patients, placebo-controlled phase 3 clinical trial
[4] = not given; remark: listed apart in the source
[5] = not given; remark: listed apart in the source
[6] = not given; remark: listed apart in the source
[7] = for geometric mean Cmax,md / median tmax.md: day 7
[8] = tested on: AR; settings: preclinical trials
[9] = tested on: PSA levels; settings: early phase clinical trials, Western mCRPC patients
[10] = in vivo
[11] = not given; remark: listed apart in the source
[12] = tested on: human plasma proteins, albumin and alpha-1 acid glycoprotein
[13] = high-fat (57% fat, 825 calories) meal
[14] = low-fat meal (7% fat, 300 calories)
[15] = single dose of Abiraterone acetate, up to
[16] = 1,000 mg daily, patients with metastatic CRPC

P-glycoprotein (P-gp), sequence (P08183 whole entry): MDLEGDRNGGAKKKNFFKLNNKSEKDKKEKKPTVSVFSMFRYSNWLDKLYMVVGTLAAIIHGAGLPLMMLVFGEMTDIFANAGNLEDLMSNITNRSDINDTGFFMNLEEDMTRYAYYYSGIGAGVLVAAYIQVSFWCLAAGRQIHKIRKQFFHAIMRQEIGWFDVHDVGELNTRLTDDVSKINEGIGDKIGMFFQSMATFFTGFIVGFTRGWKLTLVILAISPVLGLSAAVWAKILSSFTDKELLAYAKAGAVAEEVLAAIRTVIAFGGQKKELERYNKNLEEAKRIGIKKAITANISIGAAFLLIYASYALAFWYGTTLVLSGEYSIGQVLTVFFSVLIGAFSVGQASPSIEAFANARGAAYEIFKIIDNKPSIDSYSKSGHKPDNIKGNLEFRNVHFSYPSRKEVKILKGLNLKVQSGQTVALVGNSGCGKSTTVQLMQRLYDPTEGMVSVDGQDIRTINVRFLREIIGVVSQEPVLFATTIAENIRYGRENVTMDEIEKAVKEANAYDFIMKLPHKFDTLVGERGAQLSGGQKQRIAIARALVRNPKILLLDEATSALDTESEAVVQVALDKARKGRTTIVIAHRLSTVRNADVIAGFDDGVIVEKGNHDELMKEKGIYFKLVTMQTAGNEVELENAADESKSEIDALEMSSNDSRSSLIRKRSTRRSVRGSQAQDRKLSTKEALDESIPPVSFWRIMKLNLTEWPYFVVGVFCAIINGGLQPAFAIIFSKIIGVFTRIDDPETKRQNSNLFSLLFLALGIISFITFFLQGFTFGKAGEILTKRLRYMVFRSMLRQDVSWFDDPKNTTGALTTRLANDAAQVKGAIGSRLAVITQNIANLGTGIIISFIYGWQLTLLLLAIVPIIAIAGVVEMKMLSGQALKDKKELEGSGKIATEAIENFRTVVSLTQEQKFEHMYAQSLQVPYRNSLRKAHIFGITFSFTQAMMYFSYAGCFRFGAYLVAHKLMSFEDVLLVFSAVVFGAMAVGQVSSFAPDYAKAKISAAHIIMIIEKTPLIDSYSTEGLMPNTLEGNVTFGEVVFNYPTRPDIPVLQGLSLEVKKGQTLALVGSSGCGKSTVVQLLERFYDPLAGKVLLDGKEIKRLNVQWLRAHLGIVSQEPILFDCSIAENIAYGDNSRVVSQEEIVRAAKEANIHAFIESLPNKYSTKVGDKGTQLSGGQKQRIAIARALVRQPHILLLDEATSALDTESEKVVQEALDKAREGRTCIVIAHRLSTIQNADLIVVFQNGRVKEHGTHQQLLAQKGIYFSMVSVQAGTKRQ

Compound: CC(=O)O[C@H]1CC[C@@]2(C)C(=CC[C@@H]3[C@@H]2CC[C@]2(C)C(c4cccnc4)=CC[C@@H]32)C1 [Abiraterone acetate, (3β)-17-(3-pyridinyl) androsta-5,16-dien-3-yl acetate]
inhibition of P-gp ([1]; not told): inhibitor of P-gp
substrate of P-glycoprotein (P-gp) ([1]; not told): not substrates
compound present in feces, % of the administered dose [2]: approximately 55%
pKa of the aromatic nitrogen: 5.19
effect on serum testosterone and other androgens [3]: decreased
solubility in water [4]: practically insoluble
Abiraterone acetate plasma concentrations ([5]; clinical studies, below detectable levels in >99% of the analyzed samples): < 0.2 ng/mL

Compound: C[C@]12CC[C@H](O)CC1=CC[C@@H]1[C@@H]2CC[C@]2(C)C(c3cccnc3)=CC[C@@H]12 [Abiraterone]
substrate of P-glycoprotein (P-gp) ([1]; in vitro, clinically relevant concentrations): not substrates
compound present in feces, % of the administered dose [2]: ~22%
Abiraterone AUC0-28, fold higher with food [11, 13]: ~10 fold
Abiraterone Cmax, fold higher with food [11, 13]: approximately 17 fold
Abiraterone AUC0-28, fold higher with food [11, 14]: ~5 fold
Abiraterone Cmax, fold higher with food [11, 14]: approximately 7 fold
Abiraterone AUC0-28 (exposure) increase (food effect) [11, 15]: ≤ 10 fold
Abiraterone Cmax increase (food effect) [11, 15]: up to 17 fold
bound to human plasma proteins [12]: > 99%
steady-state AUC (mean±SD) [5, 16]: 993 ± 639 ng·h/mL
steady-state C. (mean±SD) [5, 16]: 226 ± 178 ng/mL
increase in the mean AUC when dose doubled ([5]; dose doubled from 1,000 to 2,000 mg): 8%
apparent steady-state volume of distribution (mean±SD) ([5]; human, in vivo): 19,669±13,358 L
median time to reach maximum plasma Abiraterone concentrations ([5]; oral Abiraterone acetate, patients with metastatic CRPC): 2 h
mean terminal half-life of Abiraterone in plasma (mean±SD) ([5]; patients with metastatic CRPC): 12 ± 5 h
accumulation: steady-state AUC compared to a single 1,000 mg dose ([5]; steady-state vs single 1,000 mg dose of Abiraterone acetate): 2 fold

Compound: (3β)-17-(3-pyridinyl) androsta-5,16-dien-3-yl acetate [Abiraterone acetate]
radioactive dose recovered in feces ([2]; oral administration): approximately 88%
radioactive dose recovered in urine ([2]; oral administration): approximately 5%

Now from value to compound, other results behind:

Cmax after single dose under fed conditions ([6]; 300 mg single dose, fed): 2590 ng/mL
Cmax after single dose under fed conditions ([6]; 600 mg single dose, fed): 3500 ng/mL
AUC(0-t last) fed state compared with fasting state ([6]; after 300 and 600 mg): 2.5 fold
bioavailability fed versus fasting conditions ([6]; single oral dose 300 mg): 2.5 fold
bioavailability fed versus fasting conditions ([6]; single oral dose 600 mg): 2.8 fold
overall median tmax ([6]; single-dose period): 3 to 6 h
terminal half-life ([6]; single-dose period): 10 to 15 h
Cmax,md versus Cmax after single dose under fed conditions ([7]; 300 mg): approximately 1.8 times
geometric mean AUCtau(0-12)md ([7]; 300 mg BID): 44400 ng·h/mL
mean linearity factor (RLIN) ([7]; 300 mg BID): 0.910
geometric mean Cmax,md ([7]; 300 mg BID): 4600 ng/mL
median tmax.md ([7]; 300 mg BID): 4.98 h
Cmax,md versus Cmax after single dose under fed conditions ([7]; 600 mg): ~1.7 times
geometric mean AUCtau(0-12)md ([7]; 600 mg BID): 58700 ng·h/mL
mean linearity factor (RLIN) ([7]; 600 mg BID): 0.961
geometric mean Cmax,md ([7]; 600 mg BID): 5800 ng/mL
median tmax.md ([7]; 600 mg BID): 5.48 h
increase in exposure after multiple dosing with 600 mg BID versus 300 mg BID ([7]; in vivo): 1.3 fold
binding affinity compared with other AR antagonists (such as bicalutamide and enzalutamide) [8]: higher binding affinity
blood-brain barrier penetration [10]: negligible
Compound: CC(O)c1cc(C(=O)N[C@@H](C)Cn2ccc(-c3ccc(C#N)c(Cl)c3)n2)n[nH]1 (stereo partly drawn) [Darolutamide]
PSA levels [9]: significant reductions

share of exposure of circulating metabolite in human plasma ([2]; oral 14C-abiraterone acetate as capsules): about 43%
Compound: C[C@]12CC[C@H](OS(=O)(=O)O)CC1=CC[C@@H]1[C@@H]2CC[C@]2(C)C(c3ccc[n+]([O-])c3)=CC[C@@H]12 [N-oxide Abiraterone sulphate]

exposure to metabolite keto-Darolutamide compared with Darolutamide ([6]; single dose 300 mg, fasting): 1.28 fold
exposure to metabolite keto-Darolutamide compared with Darolutamide ([6]; single dose 300 mg, fed): 1.33 fold
exposure to metabolite keto-Darolutamide compared with Darolutamide ([6]; single dose 600 mg, fasting): 1.44 fold
exposure to metabolite keto-Darolutamide compared with Darolutamide ([6]; single dose 600 mg, fed): 1.61 fold
Compound: CC(=O)c1cc(C(=O)N[C@@H](C)Cn2ccc(-c3ccc(C#N)c(Cl)c3)n2)[nH]n1 [keto-Darolutamide]
